± gives the uncertainty stated by the source.
Assay: xn = mol fraction of the nth substance listed

NCCN + O
Conditions	viscosity [mPa·s]
298.15 K, 101 kPa, x1 = 0.044	1.221 ± 0.033
298.15 K, 101 kPa, x1 = 0.086	1.932 ± 0.053
298.15 K, 101 kPa, x1 = 0.161	4.028 ± 0.12
298.15 K, 101 kPa, x1 = 0.194	5.2 ± 0.16
298.15 K, 101 kPa, x1 = 0.245	6.69 ± 0.21
298.15 K, 101 kPa, x1 = 0.3	8.057 ± 0.26
298.15 K, 101 kPa, x1 = 0.33	8.351 ± 0.27
298.15 K, 101 kPa, x1 = 0.35	8.258 ± 0.27
298.15 K, 101 kPa, x1 = 0.374	7.825 ± 0.25
298.15 K, 101 kPa, x1 = 0.387	7.734 ± 0.24
298.15 K, 101 kPa, x1 = 0.397	7.379 ± 0.24
298.15 K, 101 kPa, x1 = 0.416	7.048 ± 0.22
298.15 K, 101 kPa, x1 = 0.441	6.544 ± 0.21
298.15 K, 101 kPa, x1 = 0.45	6.374 ± 0.2
298.15 K, 101 kPa, x1 = 0.474	6.012 ± 0.18
298.15 K, 101 kPa, x1 = 0.502	5.885 ± 0.18
298.15 K, 101 kPa, x1 = 0.517	5.667 ± 0.17
298.15 K, 101 kPa, x1 = 0.528	5.43 ± 0.17
298.15 K, 101 kPa, x1 = 0.55	4.61 ± 0.14
298.15 K, 101 kPa, x1 = 0.599	3.684 ± 0.11
298.15 K, 101 kPa, x1 = 0.664	3.054 ± 0.086
298.15 K, 101 kPa, x1 = 0.699	2.569 ± 0.071
298.15 K, 101 kPa, x1 = 0.801	1.94 ± 0.053
298.15 K, 101 kPa, x1 = 0.9	1.533 ± 0.041
303.15 K, 101.3 kPa, x1 = 0.1138	2.607 ± 0.26
303.15 K, 101.3 kPa, x1 = 0.2306	6.369 ± 0.64
303.15 K, 101.3 kPa, x1 = 0.3102	7.766 ± 0.78
303.15 K, 101.3 kPa, x1 = 0.4116	6.837 ± 0.69
303.15 K, 101.3 kPa, x1 = 0.5452	4.416 ± 0.44
303.15 K, 101.3 kPa, x1 = 0.6294	3.321 ± 0.33
303.15 K, 101.3 kPa, x1 = 0.7296	2.434 ± 0.24
303.15 K, 101.3 kPa, x1 = 0.8507	1.789 ± 0.18
303.15 K, 101.33 kPa, x1 = 0.05	1.368 ± 0.01
303.15 K, 101.33 kPa, x1 = 0.0999	2.291 ± 0.016
303.15 K, 101.33 kPa, x1 = 0.15	3.635 ± 0.025
303.15 K, 101.33 kPa, x1 = 0.1998	5.292 ± 0.036
303.15 K, 101.33 kPa, x1 = 0.2488	6.797 ± 0.045
303.15 K, 101.33 kPa, x1 = 0.2749	7.372 ± 0.048
303.15 K, 101.33 kPa, x1 = 0.2997	7.678 ± 0.05
303.15 K, 101.33 kPa, x1 = 0.3246	7.767 ± 0.051
303.15 K, 101.33 kPa, x1 = 0.3488	7.67 ± 0.051
303.15 K, 101.33 kPa, x1 = 0.3739	7.384 ± 0.05
303.15 K, 101.33 kPa, x1 = 0.3944	7.02 ± 0.048
303.15 K, 101.33 kPa, x1 = 0.4542	5.965 ± 0.042
308.15 K, 101.3 kPa, x1 = 0.1138	2.203 ± 0.22
308.15 K, 101.3 kPa, x1 = 0.2306	5.069 ± 0.51
308.15 K, 101.3 kPa, x1 = 0.3102	6.072 ± 0.61
308.15 K, 101.3 kPa, x1 = 0.4116	5.411 ± 0.54
308.15 K, 101.3 kPa, x1 = 0.5452	3.639 ± 0.36
308.15 K, 101.3 kPa, x1 = 0.6294	2.793 ± 0.28
308.15 K, 101.3 kPa, x1 = 0.7296	2.01 ± 0.2
308.15 K, 101.3 kPa, x1 = 0.8507	1.574 ± 0.16
308.15 K, 101.33 kPa, x1 = 0.05	1.208 ± 0.008
308.15 K, 101.33 kPa, x1 = 0.0999	1.971 ± 0.014
308.15 K, 101.33 kPa, x1 = 0.15	3.059 ± 0.021
308.15 K, 101.33 kPa, x1 = 0.1998	4.347 ± 0.03
308.15 K, 101.33 kPa, x1 = 0.2488	5.484 ± 0.038
308.15 K, 101.33 kPa, x1 = 0.2749	5.92 ± 0.04
308.15 K, 101.33 kPa, x1 = 0.2997	6.133 ± 0.042
308.15 K, 101.33 kPa, x1 = 0.3246	6.213 ± 0.042
313.15 K, 101.3 kPa, x1 = 0.1138	1.911 ± 0.19
313.15 K, 101.3 kPa, x1 = 0.2306	4.122 ± 0.41
313.15 K, 101.3 kPa, x1 = 0.3102	4.906 ± 0.49
313.15 K, 101.3 kPa, x1 = 0.4116	4.41 ± 0.44
313.15 K, 101.3 kPa, x1 = 0.5452	3.07 ± 0.31
313.15 K, 101.3 kPa, x1 = 0.6294	2.402 ± 0.24
313.15 K, 101.3 kPa, x1 = 0.7296	1.842 ± 0.18
313.15 K, 101.3 kPa, x1 = 0.8507	1.416 ± 0.14
318.15 K, 101.3 kPa, x1 = 0.1138	1.652 ± 0.17
318.15 K, 101.3 kPa, x1 = 0.2306	3.388 ± 0.34
318.15 K, 101.3 kPa, x1 = 0.3102	3.963 ± 0.4
318.15 K, 101.3 kPa, x1 = 0.4116	3.585 ± 0.36
318.15 K, 101.3 kPa, x1 = 0.5452	2.574 ± 0.26
318.15 K, 101.3 kPa, x1 = 0.6294	2.066 ± 0.21
318.15 K, 101.3 kPa, x1 = 0.7296	1.613 ± 0.16
318.15 K, 101.3 kPa, x1 = 0.8507	1.258 ± 0.13
323.15 K, 101 kPa, x1 = 0.044	0.684 ± 0.018
323.15 K, 101 kPa, x1 = 0.086	0.92 ± 0.025
323.15 K, 101 kPa, x1 = 0.161	1.549 ± 0.045
323.15 K, 101 kPa, x1 = 0.194	1.881 ± 0.056
323.15 K, 101 kPa, x1 = 0.245	2.184 ± 0.067
323.15 K, 101 kPa, x1 = 0.3	2.551 ± 0.08
323.15 K, 101 kPa, x1 = 0.33	2.571 ± 0.081
323.15 K, 101 kPa, x1 = 0.35	2.643 ± 0.083
323.15 K, 101 kPa, x1 = 0.374	2.423 ± 0.076
323.15 K, 101 kPa, x1 = 0.387	2.401 ± 0.076
323.15 K, 101 kPa, x1 = 0.397	2.306 ± 0.072
323.15 K, 101 kPa, x1 = 0.416	2.291 ± 0.071
323.15 K, 101 kPa, x1 = 0.441	2.214 ± 0.068
323.15 K, 101 kPa, x1 = 0.45	2.069 ± 0.064
323.15 K, 101 kPa, x1 = 0.474	2.058 ± 0.062
323.15 K, 101 kPa, x1 = 0.502	1.991 ± 0.061
323.15 K, 101 kPa, x1 = 0.517	1.919 ± 0.058
323.15 K, 101 kPa, x1 = 0.528	1.907 ± 0.057
323.15 K, 101 kPa, x1 = 0.55	1.733 ± 0.051
323.15 K, 101 kPa, x1 = 0.599	1.539 ± 0.044
323.15 K, 101 kPa, x1 = 0.664	1.32 ± 0.037
323.15 K, 101 kPa, x1 = 0.699	1.174 ± 0.033
323.15 K, 101 kPa, x1 = 0.801	0.978 ± 0.027
323.15 K, 101 kPa, x1 = 0.9	0.847 ± 0.023

NCCN + CC(O)CO
viscosity [mPa·s], 101 kPa
Conditions	293.15 K	298.15 K	303.15 K	308.15 K	313.15 K	318.15 K
x2 = 0.0399	1.85 ± 0.04	1.64 ± 0.03	1.48 ± 0.03	1.33 ± 0.03	1.2 ± 0.03	1.08 ± 0.02
x2 = 0.0807	2.29 ± 0.05	2 ± 0.04	1.82 ± 0.04	1.62 ± 0.03	1.43 ± 0.03	1.29 ± 0.03
x2 = 0.1223	2.72 ± 0.06	2.49 ± 0.05	2.23 ± 0.05	1.95 ± 0.04	1.81 ± 0.04	1.54 ± 0.03
x2 = 0.1649	3.73 ± 0.08	3.14 ± 0.07	2.84 ± 0.06	2.47 ± 0.05	2.21 ± 0.05	1.89 ± 0.04
x2 = 0.2084	4.73 ± 0.1	4.04 ± 0.08	3.54 ± 0.07	3.02 ± 0.06	2.63 ± 0.06	2.28 ± 0.05
x2 = 0.2529	6.26 ± 0.13	5.27 ± 0.11	4.5 ± 0.09	3.9 ± 0.08	3.33 ± 0.07	–
x2 = 0.2984	8.74 ± 0.18	7.05 ± 0.15	6 ± 0.13	5.01 ± 0.1	4.23 ± 0.09	–
x2 = 0.3449	11.9 ± 0.3	9.4 ± 0.2	7.92 ± 0.16	6.61 ± 0.14	5.49 ± 0.11	–
x2 = 0.3926	16.9 ± 0.4	12.4 ± 0.3	10.5 ± 0.2	8.39 ± 0.17	6.94 ± 0.14	–
x2 = 0.4413	22.8 ± 0.5	16.9 ± 0.4	13.6 ± 0.3	10.7 ± 0.2	8.8 ± 0.18	–
x2 = 0.4912	30.5 ± 0.6	22.5 ± 0.5	17.7 ± 0.4	13.7 ± 0.3	11 ± 0.2	–
x2 = 0.5423	39.6 ± 0.8	28.8 ± 0.6	22.7 ± 0.5	17.2 ± 0.4	13.6 ± 0.3	–
x2 = 0.5946	48.1 ± 1	34.7 ± 0.7	27.4 ± 0.6	20.6 ± 0.4	16.1 ± 0.3	–
x2 = 0.6483	55.8 ± 1.1	41.5 ± 0.9	31.7 ± 0.7	23.6 ± 0.5	18.5 ± 0.4	–
x2 = 0.7032	62.6 ± 1.3	46.3 ± 1	35.2 ± 0.7	25.9 ± 0.5	20.3 ± 0.4	–
x2 = 0.7596	66.6 ± 1.4	49.7 ± 1	37.8 ± 0.8	27.6 ± 0.6	21.6 ± 0.4	–
x2 = 0.8174	66.8 ± 1.4	49.9 ± 1	38.4 ± 0.8	28.4 ± 0.6	22.2 ± 0.5	–
x2 = 0.8767	64.5 ± 1.3	48.8 ± 1	37.4 ± 0.8	27.4 ± 0.6	22.1 ± 0.5	–
x2 = 0.9375	60.7 ± 1.2	46.2 ± 1	35.5 ± 0.7	26.2 ± 0.5	21.1 ± 0.4	–
